Like-named read-outs stand apart in the source and are kept apart here. Values belong to the molecule of their own block, whether it stands above or below them. Starred links: 1 amine or outer side, 2 acyl side, 3 side chain; linkers in the order of their positions; H or OH if unused. Positions of bridges follow the written chain, without caps; N, C: chain ends. Non-standard residues stand in square brackets, D forms with d. Residues, ends and D or L forms follow the SMILES beside them. Groups on a side chain read outwards from the residue. No end group written: not given here. *: point of attachment. Phe(4-NH2) = Nc1ccc(C[C@H](N)C(=O)O)cc1; Arachidoyl = CCCCCCCCCCCCCCCCCCCC(=O)*; d(εLys) = N[C@H](CCCCN[*:1])C(=O)[*:2]; Aib = CC(C)(N)C(=O)O; Sar = CNCC(=O)O
What was measured:
[1] = type: physicochemical; settings: buffer
Experimental: Preliminary analyses were performed with these crude peptides for an approximation of their relative conversion rates in Phosphate Buffered Saline (PBS) buffer (pH, 7.2) using high performance liquid chromatography (HPLC) and MALDI analysis. The crude peptide samples were dissolved in the PBS buffer at a concentration of 1 mg/mL. […] Aliquots of 100 μL were drawn out at various time intervals, cooled to room temperature and analyzed by HPLC. […] The peptides described above were incubated in PBS buffer or serum at 37° C. for up to 8 days. Samples were collected at different time points for PBS and plasma and half-life was determined. […] The peptides described above were incubated in PBS buffer or serum at 37° C. for up to 8 days. Samples were collected at different time points for PBS and plasma and half-life was determined. […] The shorter half-life seen when the acylated dipeptide was linked to […] might be due to a conformational change that facilitates cleavage when bound to plasma or alternatively to reduced detection of the acylated form when bound to plasma.

GLP-1 receptor [2] = target: GLP-1 receptor (Homo sapiens, UniProt P43220); assay: GLP-receptor luciferase bioassay of samples incubated in 20% human plasma (restored activity); type: cell-based; settings: 37° C.
GLP-1 receptor (Homo sapiens, UniProt P43220), sequence (P43220 24-463): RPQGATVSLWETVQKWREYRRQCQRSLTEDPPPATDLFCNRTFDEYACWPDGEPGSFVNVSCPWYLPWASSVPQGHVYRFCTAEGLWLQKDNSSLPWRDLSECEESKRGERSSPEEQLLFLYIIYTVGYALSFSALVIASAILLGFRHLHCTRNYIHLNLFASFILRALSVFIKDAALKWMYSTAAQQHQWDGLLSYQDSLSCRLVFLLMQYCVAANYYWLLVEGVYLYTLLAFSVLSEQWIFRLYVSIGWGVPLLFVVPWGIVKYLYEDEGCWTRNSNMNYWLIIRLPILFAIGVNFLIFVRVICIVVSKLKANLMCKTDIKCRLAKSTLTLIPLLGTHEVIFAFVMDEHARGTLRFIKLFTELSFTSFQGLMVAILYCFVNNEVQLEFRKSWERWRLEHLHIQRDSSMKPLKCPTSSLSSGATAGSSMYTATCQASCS
Experimental: To explore the possible formation of DKP and simultaneous regeneration of the parent drug, the above-mentioned peptides were incubated in 20% human plasma at 37° C. for approximately 5 days. Samples were collected at different time points (0, 1, 2, and 5 days).

[3] = type: in vitro ADME
Experimental: The peptides described above were incubated in PBS buffer or serum at 37° C. for up to 8 days. Samples were collected at different time points for PBS and plasma and half-life was determined. […] The peptides described above were incubated in PBS buffer or serum at 37° C. for up to 8 days. Samples were collected at different time points for PBS and plasma and half-life was determined. […] The shorter half-life seen when the acylated dipeptide was linked to […] might be due to a conformational change that facilitates cleavage when bound to plasma or alternatively to reduced detection of the acylated form when bound to plasma.

glucagon receptor [4] = target: glucagon receptor (UniProt P47871); assay: cell-based or functional assay
glucagon receptor (UniProt P47871), sequence (P47871 26-477 limits assumed): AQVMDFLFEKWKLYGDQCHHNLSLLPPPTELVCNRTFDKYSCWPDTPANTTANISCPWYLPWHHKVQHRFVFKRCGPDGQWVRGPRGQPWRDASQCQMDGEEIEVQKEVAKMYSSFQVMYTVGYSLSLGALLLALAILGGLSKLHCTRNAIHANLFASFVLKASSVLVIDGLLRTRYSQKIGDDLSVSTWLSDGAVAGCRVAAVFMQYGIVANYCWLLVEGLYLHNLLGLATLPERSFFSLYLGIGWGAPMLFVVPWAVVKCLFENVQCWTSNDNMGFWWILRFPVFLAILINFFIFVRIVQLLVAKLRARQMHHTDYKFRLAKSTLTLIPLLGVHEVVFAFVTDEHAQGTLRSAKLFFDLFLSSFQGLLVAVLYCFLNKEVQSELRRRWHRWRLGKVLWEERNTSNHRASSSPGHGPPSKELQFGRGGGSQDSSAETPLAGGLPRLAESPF

glucagon receptor [5] = target: glucagon receptor (UniProt P47871); assay: cell-based or functional assay; remark: listed apart in the source
glucagon receptor [6] = target: glucagon receptor (UniProt P47871 26-477, limits assumed); assay: cell-based or functional assay
glucagon receptor (UniProt P47871 26-477, limits assumed), sequence (P47871 26-477 limits assumed): as above

GLP-1 receptor [7] = target: GLP-1 receptor (UniProt P43220 24-463, limits assumed); assay: cell-based or functional assay

Molecule: CCCCCCCCCCCCCCCCCCCC(=O)NCCCC[C@@H](N)C(=O)N(C)CC(=O)Nc1ccc(C[C@H](NC(=O)[C@H](CC(=O)O)NC(=O)[C@H](CO)NC(=O)[C@@H](NC(=O)[C@H](Cc2ccccc2)NC(=O)[C@@H](NC(=O)CNC(=O)[C@H](CCC(=O)O)NC(=O)C(C)(C)NC(=O)[C@@H](N)Cc2ccccc2)[C@@H](C)O)[C@@H](C)O)C(=O)N[C@@H](CO)C(=O)N[C@H](C(=O)N[C@@H](Cc2ccc(O)cc2)C(=O)N[C@@H](CC(C)C)C(=O)N[C@@H](CC(=O)O)C(=O)N[C@@H](CCCCN)C(=O)N[C@@H](CCC(N)=O)C(=O)N[C@@H](C)C(=O)N[C@@H](C)C(=O)NC(C)(C)C(=O)N[C@@H](CCC(=O)O)C(=O)N[C@@H](Cc2ccccc2)C(=O)N[C@H](C(=O)N[C@@H](CC(N)=O)C(=O)N[C@@H](Cc2c[nH]c3ccccc23)C(=O)N[C@@H](CC(C)C)C(=O)N[C@@H](CC(C)C)C(=O)N[C@@H](C)C(=O)NCC(=O)NCC(=O)N2CCC[C@H]2C(=O)N[C@@H](CO)C(=O)N[C@@H](CO)C(=O)NCC(=O)N[C@@H](C)C(=O)N2CCC[C@H]2C(=O)N2CCC[C@H]2C(=O)N2CCC[C@H]2C(=O)N[C@@H](CO)C(N)=O)C(C)C)[C@@H](C)CC)cc1 (H-F[Aib]EGTFTSD[Phe(4-NH2)]([Sar-d(εLys)-Arachidoyl])SIYLDKQAA[Aib]EFVNWLLAGGPSSGAPPPS-NH2; N-terminus and C-terminus assumed)
half-life [1]: ~24 h
Relative activity to GLP-1 standard (GLP-1 receptor [2]; 0 d): 30.9%
Restored (activity relative to parent peptide) (GLP-1 receptor [2]; 0 d): Restored 36%
Change of activity over the time points in plasma (GLP-1 receptor [2]; 0 to 5 d): Activity Restored
Relative activity to GLP-1 standard (GLP-1 receptor [2]; 1 d): 37.8%
Restored (activity relative to parent peptide) (GLP-1 receptor [2]; 1 d): Restored 45%
Relative activity to GLP-1 standard (GLP-1 receptor [2]; 5 d): 96.9%
Restored (activity relative to parent peptide) (GLP-1 receptor [2]; 5 d): Restored 133%

Molecule: CCCCCCCCCCCCCCCCCC(=O)NCCCC[C@@H](N)C(=O)N(C)CC(=O)NCCCC[C@H](NC(=O)[C@H](CC(=O)O)NC(=O)[C@H](CO)NC(=O)[C@@H](NC(=O)[C@H](Cc1ccccc1)NC(=O)[C@@H](NC(=O)CNC(=O)[C@H](CCC(=O)O)NC(=O)C(C)(C)NC(=O)[C@@H](N)Cc1ccccc1)[C@@H](C)O)[C@@H](C)O)C(=O)N[C@@H](CO)C(=O)N[C@H](C(=O)N[C@@H](Cc1ccc(O)cc1)C(=O)N[C@@H](CC(C)C)C(=O)N[C@@H](CC(=O)O)C(=O)N[C@@H](CCCCN)C(=O)N[C@@H](CCC(N)=O)C(=O)N[C@@H](C)C(=O)N[C@@H](C)C(=O)NC(C)(C)C(=O)N[C@@H](CCC(=O)O)C(=O)N[C@@H](Cc1ccccc1)C(=O)N[C@H](C(=O)N[C@@H](CC(N)=O)C(=O)N[C@@H](Cc1c[nH]c2ccccc12)C(=O)N[C@@H](CC(C)C)C(=O)N[C@@H](CC(C)C)C(=O)N[C@@H](C)C(=O)NCC(=O)NCC(=O)N1CCC[C@H]1C(=O)N[C@@H](CO)C(=O)N[C@@H](CO)C(=O)NCC(=O)N[C@@H](C)C(=O)N1CCC[C@H]1C(=O)N1CCC[C@H]1C(=O)N1CCC[C@H]1C(=O)N[C@@H](CO)C(=O)O)C(C)C)[C@@H](C)CC [Peptide E]
half-life [3]: ~168 h
half-life [1]: ~168 h

Molecule: CCCCCCCCCCCCCCCCCCCCCC(=O)NCCCC[C@@H](N)C(=O)N(C)CC(=O)NCCCC[C@H](NC(=O)[C@H](CO)NC(=O)[C@H](Cc1ccc(O)cc1)NC(=O)[C@H](CC(=O)O)NC(=O)[C@H](CO)NC(=O)[C@@H](NC(=O)[C@H](Cc1ccccc1)NC(=O)[C@@H](NC(=O)CNC(=O)[C@H](CCC(=O)O)NC(=O)C(C)(C)NC(=O)[C@@H](N)Cc1ccc(O)cc1)[C@@H](C)O)[C@@H](C)O)C(=O)N[C@@H](Cc1ccc(O)cc1)C(=O)N[C@@H](CC(C)C)C(=O)N[C@@H](CC(=O)O)C(=O)N[C@@H](CCCCN)C(=O)N[C@@H](CCC(N)=O)C(=O)N[C@@H](C)C(=O)N[C@@H](C)C(=O)NC(C)(C)C(=O)N[C@@H](CCC(=O)O)C(=O)N[C@@H](Cc1ccccc1)C(=O)N[C@H](C(=O)N[C@@H](CC(N)=O)C(=O)N[C@@H](Cc1c[nH]c2ccccc12)C(=O)N[C@@H](CC(C)C)C(=O)N[C@@H](CC(C)C)C(=O)N[C@@H](C)C(=O)NCC(=O)NCC(=O)N1CCC[C@H]1C(=O)N[C@@H](CO)C(=O)N[C@@H](CO)C(=O)NCC(=O)N[C@@H](C)C(=O)N1CCC[C@H]1C(=O)N1CCC[C@H]1C(=O)N1CCC[C@H]1C(=O)N[C@@H](CO)C(=O)O)C(C)C [Peptide F]
half-life [3]: < 24 h

Molecule: CCCCCCCCCCCCCCCCCCCCCC(=O)NCCCC[C@@H](N)C(=O)N(C)CC(=O)NCCCC[C@H](NC(=O)[C@H](CC(=O)O)NC(=O)[C@H](CC(C)C)NC(=O)[C@H](Cc1ccc(O)cc1)NC(=O)[C@@H](NC(=O)[C@H](CO)NC(=O)[C@H](Cc1ccc(O)cc1)NC(=O)[C@H](CC(=O)O)NC(=O)[C@H](CO)NC(=O)[C@@H](NC(=O)[C@H](Cc1ccccc1)NC(=O)[C@@H](NC(=O)CNC(=O)[C@H](CCC(=O)O)NC(=O)C(C)(C)NC(=O)[C@@H](N)Cc1ccc(O)cc1)[C@@H](C)O)[C@@H](C)O)[C@@H](C)CC)C(=O)N[C@@H](CCC(N)=O)C(=O)N[C@@H](C)C(=O)N[C@@H](C)C(=O)NC(C)(C)C(=O)N[C@@H](CCC(=O)O)C(=O)N[C@@H](Cc1ccccc1)C(=O)N[C@H](C(=O)N[C@@H](CC(N)=O)C(=O)N[C@@H](Cc1c[nH]c2ccccc12)C(=O)N[C@@H](CC(C)C)C(=O)N[C@@H](CC(C)C)C(=O)N[C@@H](C)C(=O)NCC(=O)NCC(=O)N1CCC[C@H]1C(=O)N[C@@H](CO)C(=O)N[C@@H](CO)C(=O)NCC(=O)N[C@@H](C)C(=O)N1CCC[C@H]1C(=O)N1CCC[C@H]1C(=O)N1CCC[C@H]1C(=O)N[C@@H](CO)C(=O)O)C(C)C [Peptide G]
half-life [3]: > 168 h
half-life [1]: > 168 h

Molecule: E9, K12, E16 glucagon(6-39) Cex peptide (Table 1 peptide 1)
Glucagon IC50 (glucagon receptor [4]): 0.762 µM
Glu IC50 (glucagon receptor [5]): 0.762 µM

Glucagon IC50 (nM); PA = partial antagonist (glucagon receptor [6]): 130 nM
GLP-1 EC50 (GLP-1 receptor [7]): 0.0002 µM
B1: [A2E3, E16K20(Lactam), D28]G(1~29) (Table 2 peptide 8) (peptide)
peptide: HAEGTFTSEYSKYLDERRAKDFVQWLMDT-NH2
modifications: lactam 16-20; N-terminus assumed
SMILES: CSCC[C@H](NC(=O)[C@H](CC(C)C)NC(=O)[C@H](Cc1c[nH]c2ccccc12)NC(=O)[C@H](CCC(N)=O)NC(=O)[C@@H](NC(=O)[C@H](Cc1ccccc1)NC(=O)[C@H](CC(=O)O)NC(=O)[C@@H]1CCCCNC(=O)CC[C@H](NC(=O)[C@H](CC(=O)O)NC(=O)[C@H](CC(C)C)NC(=O)[C@H](Cc2ccc(O)cc2)NC(=O)[C@H](CCCCN)NC(=O)[C@H](CO)NC(=O)[C@H](Cc2ccc(O)cc2)NC(=O)[C@H](CCC(=O)O)NC(=O)[C@H](CO)NC(=O)[C@@H](NC(=O)[C@H](Cc2ccccc2)NC(=O)[C@@H](NC(=O)CNC(=O)[C@H](CCC(=O)O)NC(=O)[C@H](C)NC(=O)[C@@H](N)Cc2c[nH]cn2)[C@@H](C)O)[C@@H](C)O)C(=O)N[C@@H](CCCNC(=N)N)C(=O)N[C@@H](CCCNC(=N)N)C(=O)N[C@@H](C)C(=O)N1)C(C)C)C(=O)N[C@@H](CC(=O)O)C(=O)N[C@H](C(N)=O)[C@@H](C)O
